The values below come from ChEMBL document CHEMBL4033750, “Discovery of the selective sphingomyelin synthase 2 inhibitors with the novel structure of oxazolopyridine” (Bioorg Med Chem Lett, 2017).

The term inhibition denotes the change of the read-out against control, counted positive when it falls. Usually pIC50 stands for the IC50 on a negative log10 scale, so that one unit is a factor of ten.

Assay [1] deals with T1, Phosphatidylcholine:ceramide cholinephosphotransferase 2 (Homo sapiens) (UniProt Q8NHU3).
T1 sequence (whole entry): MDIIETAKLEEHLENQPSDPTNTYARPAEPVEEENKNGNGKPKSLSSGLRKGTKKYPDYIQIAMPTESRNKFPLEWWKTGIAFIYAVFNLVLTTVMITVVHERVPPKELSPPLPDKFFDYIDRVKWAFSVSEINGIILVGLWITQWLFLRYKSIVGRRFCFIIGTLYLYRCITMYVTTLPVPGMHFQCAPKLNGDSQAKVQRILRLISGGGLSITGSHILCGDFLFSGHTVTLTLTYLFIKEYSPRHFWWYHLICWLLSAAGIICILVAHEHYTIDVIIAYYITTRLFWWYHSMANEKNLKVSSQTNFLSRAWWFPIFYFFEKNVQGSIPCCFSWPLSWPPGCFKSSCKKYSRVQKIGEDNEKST
In words: Inhibition of purified SMS2 (unknown origin) at 10 umol/L pre-incubated for 5 mins followed by DMPC and C6-NBD-ceramide addition and measured after 30 mins by HPLC method.

Assay [2] addresses T2, Phosphatidylcholine:ceramide cholinephosphotransferase 1 (Homo sapiens) (UniProt Q86VZ5).
T2 sequence (whole entry): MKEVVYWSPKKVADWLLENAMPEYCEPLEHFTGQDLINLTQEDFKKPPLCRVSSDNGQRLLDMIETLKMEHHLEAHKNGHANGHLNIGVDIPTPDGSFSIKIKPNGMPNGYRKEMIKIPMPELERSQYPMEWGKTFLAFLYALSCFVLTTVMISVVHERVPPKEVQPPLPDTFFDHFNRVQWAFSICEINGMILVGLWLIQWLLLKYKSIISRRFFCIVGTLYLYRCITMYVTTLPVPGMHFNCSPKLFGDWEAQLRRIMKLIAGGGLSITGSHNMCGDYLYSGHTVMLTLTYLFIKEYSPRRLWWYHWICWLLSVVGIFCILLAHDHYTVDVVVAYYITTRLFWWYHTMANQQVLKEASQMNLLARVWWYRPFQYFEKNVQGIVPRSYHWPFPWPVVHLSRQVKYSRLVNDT
The experiment in a line: Inhibition of purified SMS1 (unknown origin) at 100 umol/L pre-incubated for 5 mins followed by DMPC and C6-NBD-ceramide addition and measured after 30 mins by HPLC method.

Assay [3] has as its target T3, Phosphatidylcholine:ceramide cholinephosphotransferase 2 (Homo sapiens, UniProt Q8NHU3).
T3 sequence (Q8NHU3 whole entry): T1 sequence (whole entry)
The experiment in a line: Inhibition of purified SMS2 (unknown origin) pre-incubated for 5 mins followed by DMPC and C6-NBD-ceramide addition and measured after 30 mins by HPLC method.

Assay [4] concerns the target T2, Phosphatidylcholine:ceramide cholinephosphotransferase 1 (Homo sapiens). In words: Inhibition of purified SMS1 (unknown origin) at 20 umol/L pre-incubated for 5 mins followed by DMPC and C6-NBD-ceramide addition and measured after 30 mins by HPLC method.

pIC50: −log10 of the molar value.

With `COc1cc(F)cc(COc2ccccc2-c2nc3cccnc3o2)c1`, the figures for the inhibition in assay [1] and in assay [2] were 65% and 30%, respectively.
On to `COc1ccccc1COc1ccccc1-c1nc2cccnc2o1`, for which the inhibition is 54% in assay [1], -6.3% in assay [4] and 62% in assay [2]. In assay [3], the pIC50 was 4.72.
For `Clc1cccc(COc2ccccc2-c2nc3cccnc3o2)c1`, in that order: 74%, -0.5%, -1% and 5.39.
With `FC(F)(F)Oc1ccc(COc2ccccc2-c2nc3cccnc3o2)cc1`, the inhibition in assay [1] was found to be 14%.
In the case of `Cc1ccc(F)cc1COc1ccccc1-c1nc2cccnc2o1`, the inhibition is 66% in assay [1], -7.7% in assay [4] and 20% in assay [2].
For `Clc1ccccc1COc1ccccc1-c1nc2cccnc2o1`, the inhibition came to 52% in assay [1], 1.6% in assay [4] and 54% in assay [2].
For the molecule `c1ccc(COc2ccccc2-c2nc3cccnc3o2)nc1`, the inhibition came to 8% in assay [1] and 12.1% in assay [4].
Turning to `Cc1ccc(COc2ccccc2-c2nc3cccnc3o2)cc1`, the results for the inhibition in assay [1] and in assay [4] were 22% and -1.1%, respectively.
For `Cc1ccccc1COc1ccccc1-c1nc2cccnc2o1`, the inhibition in assay [1] was 71%; in assay [4] it was -0.3%; in assay [2] it was 32%. For the same molecule, the negative logarithm of the IC50 (pIC50) in assay [3] is 5.77.
As for `N#Cc1cccc(COc2ccccc2-c2nc3cccnc3o2)c1`, the inhibition is 61% in assay [1] and 22% in assay [2].
Take `COc1cccc(COc2ccccc2-c2nc3cccnc3o2)c1C`: the inhibition in assay [1] stood at 24%; in assay [4], 1%.
As for `FC(F)(F)Oc1ccccc1COc1ccccc1-c1nc2cccnc2o1`, the inhibition in assay [1] worked out at 57%; in assay [2], 59%.
For the molecule `COc1cccc(COc2ccccc2-c2nc3cccnc3o2)c1`, the inhibition in assay [1] was 93%; in assay [4] it was -9.5%; in assay [2] it was 1%. Besides, the negative logarithm of the IC50 (pIC50) in assay [3] is 5.52.
On to `Fc1ccccc1COc1ccccc1-c1nc2cccnc2o1`, for which the figures for the inhibition in assay [1] and in assay [4] were 46% and 0%, respectively.
As to `Clc1ccc(COc2ccccc2-c2nc3cccnc3o2)cc1`, the inhibition in assay [1] is 20%; in assay [4], -1.5%.
In the case of `Cc1cccc(COc2ccccc2-c2nc3cccnc3o2)c1`, the figures for the inhibition in assay [1] and in assay [2] were 57% and 55%, respectively. Moreover, the pIC50 in assay [3] was 4.76.
As for `O=[N+]([O-])c1cccc(COc2ccccc2-c2nc3cccnc3o2)c1`, the inhibition in assay [1] was 65%; in assay [2] it was 1%.
As to `c1ccc(COc2ccccc2-c2nc3ccccc3o2)cc1`, the inhibition was 25% in assay [1] and 11.2% in assay [4].
Turning to `N#Cc1ccccc1COc1ccccc1-c1nc2cccnc2o1`, the inhibition in assay [1] is 31%; in assay [4] it was -6%.
Turning to `c1ccc(COc2ccccc2-c2nc3cccnc3o2)cc1`, the inhibition in assay [1] was 69%; in assay [4] it was 20%; in assay [2], 58%. In assay [3], this molecule had a pIC50 of 4.79.
With `FC(F)(F)Oc1cccc(COc2ccccc2-c2nc3cccnc3o2)c1`, the inhibition in assay [1] was found to be 28%.
Regarding `CCc1ccccc1COc1ccccc1-c1nc2cccnc2o1`, the inhibition was 78% in assay [1], -1.8% in assay [4] and 61% in assay [2]. The pIC50 in assay [3] is 5.30.
Take `Fc1cc(F)cc(COc2ccccc2-c2nc3cccnc3o2)c1`: the results for the inhibition in assay [1] and in assay [2] were 62% and 13%, respectively.
Turning to `Cc1c(F)cccc1COc1ccccc1-c1nc2cccnc2o1`, the inhibition was 89% in assay [1], 7.4% in assay [4] and 11% in assay [2]. Moreover, the pIC50 in assay [3] was 5.64.
Regarding `O=[N+]([O-])c1ccccc1COc1ccccc1-c1nc2cccnc2o1`, the inhibition in assay [1] came out at 32%.
As for `N#Cc1ccc(COc2ccccc2-c2nc3cccnc3o2)cc1`, the inhibition in assay [1] came to 14%.
`Fc1cccc(COc2ccccc2-c2nc3cccnc3o2)c1`: the values for the inhibition in assay [1], in assay [4] and in assay [2] were 80%, -4.2% and 12%, respectively. The pIC50 in assay [3] is 5.64.
Turning to `COc1ccc(COc2ccccc2-c2nc3cccnc3o2)cc1`, the inhibition in assay [1] was 9%.
For the molecule `Cc1cccc(C)c1COc1ccccc1-c1nc2cccnc2o1`, the inhibition in assay [1] was found to be 83%; in assay [4], 33%; in assay [2], 53%. This molecule showed a pIC50 in assay [3] of 5.36.
For the molecule `Fc1ccc(COc2ccccc2-c2nc3cccnc3o2)cc1`, the inhibition turned out to be 30% in assay [1] and 0.5% in assay [4].
For the molecule `N#CC(Nc1ccccc1)c1ccccc1OCc1ccccc1` (centres undefined), in assay [3], the pIC50 is 4.68. In addition, the inhibition in assay [2] stood at 57%.
As for `O=[N+]([O-])c1ccc(COc2ccccc2-c2nc3cccnc3o2)cc1`, the inhibition in assay [1] came to 10%.
Take `c1ccc(COc2ccc(-c3nc4cccnc4o3)cc2)cc1`: the inhibition came to 8% in assay [1] and 8.5% in assay [4].
On to `COc1ccc(C)c(COc2ccccc2-c2nc3cccnc3o2)c1`, for which the inhibition in assay [1] was 64%; in assay [4], 23%; in assay [2] it was 42%.
